Assay results taken from EP1127574A1, “Use of chitinous materials for inhibiting cellular nitric oxide production” (Food Industry Research and Development Institute, priority 2000, dated 2001).

Assays:
RAW 264.7 cells [1] = assay: Measurement of NO production via nitrite detection (Griess reagents) in IFN-γ and LPS activated macrophages; assay type: cell-based, mouse; conditions: for effect on NO production (in words): activated RAW 264.7 cells
Method: (§1) Cell culture. NIH/3T3 (mouse embryo fibroblast, CCRC 60008) and RAW 264.7 (mouse monocyte/macrophage, CCRC 60001) cell lines were obtained from Culture Collection and Research Center (CCRC), Taiwan. Both cell lines were cultured in Dulbecco's modified essential medium (DMEM, GIBCO BRL, Rockville, MD) containing 1.5 g/L NaHCO3 supplemented with 10% fetal bovine serum (Hyclone, Logan, UT) and incubated in 5% CO2 at 37°C. Cell cultures were examined for mycoplasma contamination with the fluorescent stain Hoechst 33258 (Hay et al., ATCC Quality Control Methods for Cell Lines, American Type Culture Collection, Manassas, VA, 1992, pp 23-33). All cultures described in the present example were mycoplasma-free.
Collagen/chitin-coated wells. Two mixtures were prepared. A mixture of collagen type I (rat tail, Sigma, St. Louis, MO) was dissolved in 0.1 N acetic acid to produce a 1 mg/ml collagen solution. Chitin was added to 0.1 N acetic acid until a 1 mg/ml mixture was achieved, and the mixture was sonicated for 3 minutes using a Labsonic U sonicator, (Braun Biotech International, Germany). After being autoclaved at 121°C for 15 minutes, the chitin mixture became a slurry of fine wires. Microtiter tissue culture plates (96-well) were rinsed with Dulbecco's phosphate-buffer saline without Ca^+2 and Mg^+2 (D-PBS, GIBCO BRL). Five microliters of collagen solution or different amounts of the chitin mixture were then added to each well. The plates were then air-dried in a laminar flow hood and stored at 4°C for up to a week.
Measurement of NO production via nitrite detection. Nitric oxide (NO) production was indirectly quantified by measuring the accumulation of nitrite (NO2^-) in the culture media using Griess reagents and sodium nitrite as a standard (Green et al., Anal. Biochem. 126:131-138, 1982; and Ignarro et al., Proc. Natl. Acad. Sci. USA 90:8103-8107, 1993). For nitrite assays, RAW 264.7 cells were subcultured in coated 96-well tissue culture plates at 1 x 10^5 cells/well and incubated for 24 hours. The culture media were changed to phenol red-free, serum-free DMEM containing 100 U/ml interferon-γ (IFN-γ, recombinant murine; GIBCO BRL) and 100 ng/ml lipopolysaccharide (LPS, Escherichia coli serotype O128:B12; Sigma). The samples were then tested as described in Rollo et al., J. Leukoc. Biol. 60:397-404, 1996.
To measure the effect of chitin on NO production, cells were subcultured directly in the chitin-coated 96-well tissue culture plates. After overnight incubation, cells became adhered to the bottom of chitin-coated wells. The culture media were removed and replaced with media supplemented with IFN-γ and LPS as described above. After 48 hours incubation, […] of culture supernatants were mixed sequentially with equal volumes of 60 mM sulfanilamide (Sigma) in 3 N HCl and 4 mM N-1-naphthylethylenediamine (Sigma) and then shaken for 5 minutes at room temperature as described in Rollo et al., supra. Nitrite concentration was measured by reading the sample's absorbance at 540 nm using a microplate reader (MRX, Dynex Technologies, Inc., VA).

RAW 264.7 cells [2] = assay: Cytotoxicity test (MTT dye), RAW 264.7; assay type: cell-based, mouse
Method: as §1
Collagen/chitin-coated wells. Two mixtures were prepared. A mixture of collagen type I (rat tail, Sigma, St. Louis, MO) was dissolved in 0.1 N acetic acid to produce a 1 mg/ml collagen solution. […]
Cytotoxicity test. […] Cytotoxicity was measured using the dye 3-(4,5-dimethylthiazol-2-yl)-2,5-diphenyl tetrazolium bromide (MTT; Merck Co., Germany) and following the methods described in Mosmann, J. Immunol. […]
The cytotoxicity associated with chitin and chitosan was evaluated for both mouse embryonic fibroblast NIH/3T3 cells and mouse monocyte-macrophage RAW 264.7 cells. […]

[3] = 10 µg/ml in culture medium, activated RAW 264.7
[4] = Mus musculus, RAW264.7, 48 h, 10 µg/ml in culture medium, activated RAW 264.7, read-out: Nitrite Production as Percentage of Control
[5] = 2 µg/ml in culture medium, activated RAW 264.7
[6] = 10 µg/ml in culture medium, activated RAW 264.7, 2880 min

`CC(=O)N[C@H]1C(O)O[C@H](CO)[C@@H](O)[C@@H]1O` (stereo partly shown) [NAGA, N-acetylglucosamine, reference compound] was tested, and the “Nitrite Production” value (RAW 264.7 cells [1]; [3]) was 66.7 ± 0.9 µM, the activity at 10 µg/mL (RAW 264.7 cells [1]; [4]) was 102% and the cytotoxicity (RAW 264.7 cells [2]) was “not cytotoxic”.

With `CC(=O)N[C@H]1[C@H](O[C@H]2[C@H](O)[C@@H](NC(C)=O)C(O)O[C@@H]2CO)O[C@H](CO)[C@@H](O)[C@@H]1O` (stereo partly drawn) [chitobiose, 2-acetamido-2-deoxy-4-O-(2-acetamido-2-deoxy-b-D-glucopyranosyl)-D-glucopyranose] the “Nitrite Production” value (RAW 264.7 cells [1]; [5]) was 64.9 ± 0.8 µM, the “Nitrite Production” value (RAW 264.7 cells [1]; [3]) was 64.1 ± 0.9 µM and the activity at 2 µg/mL (RAW 264.7 cells [1]; Mus musculus, RAW264.7, 48 h, 2 µg/ml in culture medium, activated RAW 264.7, read-out: Nitrite Production as Percentage of Control) was 98.9%. The activity at 10 µg/mL (RAW 264.7 cells [1]; [4]) was 97.7%.

In the case of `N[C@H]1C(O)O[C@H](CO)[C@@H](O)[C@@H]1O` (stereo partly shown) [glucoseamine, glucosamine, reference compound], the “Nitrite Production” value (RAW 264.7 cells [1]; [3]) is reported as 64.3 ± 0.8 µM, the activity at 10 µg/mL (RAW 264.7 cells [1]; [4]) is reported as 98% and the cytotoxicity (RAW 264.7 cells [2]) is reported as “not cytotoxic”.

For chitohexose, the “Nitrite Production” value (RAW 264.7 cells [1]; [5]) was 41.3 ± 0.8 µM, the “Nitrite Production as Percentage of Control” value (RAW 264.7 cells [1]; [5]) was 63 Percentage of Control and the “Nitrite Production” value (RAW 264.7 cells [1]; [3]) was 35.8 ± 2.9 µM. For the same compound, the “Nitrite Production as Percentage of Control” value (RAW 264.7 cells [1]; [6]) was 54.5 Percentage of Control and the “effect on NO production (in words)” value (RAW 264.7 cells [1]) was “did substantially decrease NO production”.

With chitopentose the “Nitrite Production” value (RAW 264.7 cells [1]; [5]) was 47.0 ± 0.5 µM, the “Nitrite Production as Percentage of Control” value (RAW 264.7 cells [1]; [5]) was 70.6 Percentage of Control and the “Nitrite Production” value (RAW 264.7 cells [1]; [3]) was 42.7 ± 1.2 µM. For the same compound, the “Nitrite Production as Percentage of Control” value (RAW 264.7 cells [1]; [6]) was 65.1 Percentage of Control and the “effect on NO production (in words)” value (RAW 264.7 cells [1]) was “did substantially decrease NO production”.

chitotetraose was tested, and the “Nitrite Production” value (RAW 264.7 cells [1]; [5]) was 63.4 ± 0.5 µM, the “Nitrite Production as Percentage of Control” value (RAW 264.7 cells [1]; [5]) was 96.6 Percentage of Control and the “Nitrite Production” value (RAW 264.7 cells [1]; [3]) was 61.3 ± 0.6 µM. For the same compound, the “Nitrite Production as Percentage of Control” value (RAW 264.7 cells [1]; [6]) was 93.4 Percentage of Control.

chitotriose was tested, and the “Nitrite Production” value (RAW 264.7 cells [1]; [5]) was 61.5 ± 0.9 µM, the “Nitrite Production as Percentage of Control” value (RAW 264.7 cells [1]; [5]) was 93.8 Percentage of Control and the “Nitrite Production” value (RAW 264.7 cells [1]; [3]) was 61.1 ± 0.2 µM. The “Nitrite Production as Percentage of Control” value (RAW 264.7 cells [1]; [6]) was 93.1 Percentage of Control.
